Experimental data from patent US8587857B2, “Electro-wetting display device and non-polar color solution thereof” (Industrial Technology Research Institute, priority 2010, dated 2013).

Test: solubility of dye in dodecane non-polar solvent, with or without trimethylbenzene (TMB) improvement agent
Assay type: physicochemical
Protocol: For example, when a red dye (for example, the C.I. solvent red 164) is dissolved in a dodecane non-polar solvent, a solubility thereof is about 4 wt %.
For another example, when a blue dye (for example, the C.I. solvent blue 98) is dissolved in the dodecane non-polar solvent, a solubility thereof is about 8 wt %.

## C.I. solvent blue 98
Dye dissolved in dodecane non-polar solvent added with trimethylbenzene (TMB) improvement agent
  solubility: 21.5 wt %
Dye dissolved in dodecane non-polar solvent, no improvement agent
  solubility: about 8 wt %
